# Measured values published in patent US20190076452A1, “THERAPEUTIC COMBINATIONS FOR TREATING NEOPLASIA” (MEDIMMUNE LIMITED, priority 2014, published 2019).
# B1: MEDI4736: human monoclonal antibody directed against human PD-L1 (antibody, V domains shown)
# VH: EVQLVESGGGLVQPGGSLRLSCAASGFTFSRYWMSWVRQAPGKGLEWVANIKQDGSEKYYVDSVKGRFTISRDNAKNSLYLQMNSLRAEDTAVYYCAREGGWFGELAFDYWGQGTLVTVSS
# VL: EIVLTQSPGTLSLSPGERATLSCRASQRVSSSYLAWYQQKPGQAPRLLIYDASSRATGIPDRFSGSGSGTDFTLTISRLEPEDFAVYYCQQYGSLPWTFGQGTKVEIK
# B2: OX40 FP: mouse OX40 fusion protein produced by MedImmune (protein)
# chain: SSSPAKDPPIQRLRGAVTRCEDGQLFISSYKNEYQTMEVQNNSVVIKCDGLYIIYLKGSFFQEVKIDLHFREDHNPISIPMLNDGRRIVFTVVASLAFKDKVYLTVNAPDTLCEHLQINDGELIVVQLTPGYCAPEGSYHSTVNQVPL
# modifications: left off: a dimerising Fc or GST
# notes: mouse OX40 fusion protein produced by MedImmune
# Legend:
# [1] = tested on: CT26 tumors; experiment: Established CT26 tumors in immunocompetent Balb/C mice; assay type: in vivo; conditions: maximally tolerated doses, tumors approximately 200 mm^3, immunocompetent mice
# Protocol: (§1) FIG. 4A is a graph showing tumor volume in CT26 tumor-bearing athymic nude mice dosed with Doxil (5 mg/kg) or Doxorubicin (5 mg/kg) as indicated. FIG. 4B is a graph showing tumor volume in CT26 tumor-bearing Balb/C mice dosed with Doxil (5 mg/kg) or Doxorubicin (5 mg/kg) as indicated. FIG. 4C is a graph showing tumor volume in CT26 tumor-bearing athymic nude mice dosed with gemcitabine (75 mg/kg) as indicated. FIG. 4D is a graph showing tumor volume in CT26 tumor-bearing Balb/C mice dosed with gemcitabine (75 mg/kg) as indicated. FIG. 4E is a graph showing tumor volume in CT26 tumor-bearing athymic nude mice dosed with oxiplatin (8 mg/kg) as indicated. FIG. 4F is a graph showing tumor volume in CT26 tumor-bearing Balb/C mice dosed with oxiplatin (8 mg/kg) as indicated. Arrows indicate dose administration.
# A CT26 model was used in several studies. CT26 cells are murine colon cancer cells. CT26 cells were obtained from the ATCC (Manassas, Va.), and were grown with RPMI supplemented with 10% fetal bovine serum. Following receipt, cell lines were re-authenticated using STR-based DNA profiling and multiplex PCR (IDEXX Bioresearch, Columbia, Mo.). Cells were grown in monolayer culture, harvested by trypsinizatin, and implanted subcutaneously into the right flank of 6-8 week old female Balb/C (CT26), C57/Bl6 (MCA205), or 4-6 week athymic female nude mice (Harlan, Indianapolis, Ind.). For the CT26 tumor model, 5×10^5 cells were implanted in the right flank using a 26-gauge needle. […] The number of animals per group ranged from between 10-12 animals per group as determined based on sample size calculations using nQuery software. Both tumor and body weight measurements were collected twice weekly and tumor volume calculated using the equation (L×W^2)/2, where L and W refers to the length and width dimensions, respectively. Error bars were calculated as standard error of the mean. The general health of mice was monitored daily and all experiments were conducted in accordance to AAALAC and MedImmune IACUC guidelines for humane treatment and care of laboratory animals.
# [2] = tested on: CT26 tumors; experiment: Established CT26 tumors in T cell-deficient athymic nude mice; assay type: in vivo; conditions: maximally tolerated doses, tumors approximately 200 mm^3, immunodeficient mice
# Protocol: as §1, with “FIG. 4F is a graph showing tumor volume in CT26 tumor-bearing Balb/C mice dosed with oxiplatin (8 mg/kg) as indicated. Arrows indicate dose administration.” left out
# (§2) A CT26 model was used in several studies. […] The number of animals per group ranged from between 10-12 animals per group as determined based on sample size calculations using nQuery software. Both tumor and body weight measurements were collected twice weekly and tumor volume calculated using the equation (L×W^2)/2, where L and W refers to the length and width dimensions, respectively. Error bars were calculated as standard error of the mean. The general health of mice was monitored daily and all experiments were conducted in accordance to AAALAC and MedImmune IACUC guidelines for humane treatment and care of laboratory animals.
# [3] = tested on: CT26 cells; experiment: CT26 tumor model, preventative treatment before measurable tumor; assay type: in vivo, Balb/C mice
# Protocol: A CT26 model was used in several studies. CT26 cells are murine colon cancer cells. CT26 cells were obtained from the ATCC (Manassas, Va.), and were grown with RPMI supplemented with 10% fetal bovine serum. Following receipt, cell lines were re-authenticated using STR-based DNA profiling and multiplex PCR (IDEXX Bioresearch, Columbia, Mo.). Cells were grown in monolayer culture, harvested by trypsinizatin, and implanted subcutaneously into the right flank of 6-8 week old female Balb/C (CT26), C57/Bl6 (MCA205), or 4-6 week athymic female nude mice (Harlan, Indianapolis, Ind.). For the CT26 tumor model, 5×10^5 cells were implanted in the right flank using a 26-gauge needle. Antibodies were obtained from Anti-PD-1 (RMP1-14), anti-PD-L1 (10F.9G2), anti-CTLA-4 (9D9), and mouse IgG2b control (MPC-11). Mouse OX40 fusion protein (OX40 FP) and Rat IgG2a isotype control antibodies were produced by MedImmune (Gaithersburg, Md.). All antibodies and OX40 FP were dosed via intraperitoneal injection. Doxil (Bluedoor Pharma, Rockville, Md.) and doxorubicin (Henry Schein, Melville, N.Y.) were dosed via intravenous administration. In some studies, isotype controls were administered to mice as a cocktail of rat IgG2a and mouse IgG2b. At the beginning of treatment, mice were either randomized by tumor volume (established-tumor studies) or by body weight (preventative studies). The number of animals per group ranged from between 10-12 animals per group as determined based on sample size calculations using nQuery software. Both tumor and body weight measurements were collected twice weekly and tumor volume calculated using the equation (L×W^2)/2, where L and W refers to the length and width dimensions, respectively. Error bars were calculated as standard error of the mean. The general health of mice was monitored daily and all experiments were conducted in accordance to AAALAC and MedImmune IACUC guidelines for humane treatment and care of laboratory animals.
# [4] = tested on: xenograft model; conditions: T-cell dependent mechanism; cited from earlier work
# [5] = tested on: MCA205 tumors; experiment: Established MCA205 syngeneic tumor model; assay type: in vivo, C57/Bl6 mice; conditions: maximally efficacious doses
# Description: FIGS. 7A-7L show synergistic anti-tumor responses of Doxil in combination with α-PD-1, α-PD-L1 and α-CTLA-4 antibodies in the MCA205 syngeneic model. FIG. 7A is a graph depicting tumor volume in untreated mice. FIG. 7B is a graph depicting tumor volume in mice administered Doxil. FIG. 7C is a graph depicting tumor volume in mice administered OX40L fusion protein (FP). FIG. 7D is a graph depicting tumor volume in mice administered α-PD-1. FIG. 7E is a graph depicting tumor volume in mice administered α-PD-L1. FIG. 7F is a graph depicting tumor volume in mice administered α-CTLA-4. FIG. 7G is a graph depicting tumor volume in mice administered GITR ligand fusion protein (GITRL FP). […]
# As CT26 is highly sensitive to immunotherapies, it was determined whether Doxil could enhance the activity of immunotherapies in a less sensitive model, MCA205. […]
# MCA205 cells were obtained from Agonox (Portland, Oreg.) and grown in RPMI supplemented with 10% fetal bovine serum. […] The number of animals per group ranged from between 10-12 animals per group as determined based on sample size calculations using nQuery software. Both tumor and body weight measurements were collected twice weekly and tumor volume calculated using the equation (L×W^2)/2, where L and W refers to the length and width dimensions, respectively. Error bars were calculated as standard error of the mean. […]
# [6] = tested on: CT26 tumors; experiment: Established CT26 tumor model, Doxil combined with immunotherapies; assay type: in vivo, Balb/C mice; conditions: maximally efficacious doses
# Description: FIGS. 5A-5L show synergistic anti-tumor responses of Doxil in combination with multiple immunotherapies in an established CT26 tumor model. FIG. 5A is a graph depicting tumor volume in untreated mice. FIG. 5B is a graph depicting tumor volume in mice administered Doxil. FIG. 5C is a graph depicting tumor volume in mice administered OX40L fusion protein (FP). FIG. 5D is a graph depicting tumor volume in mice administered α-PD-1. FIG. 5E is a graph depicting tumor volume in mice administered α-PD-L1. FIG. 5F is a graph depicting tumor volume in mice administered α-CTLA-4. FIG. 5G is a graph depicting tumor volume in mice administered GITR ligand fusion protein (GITRL FP). FIG. 5H is a graph depicting tumor volume in mice administered Doxil+OX40L FP. […]
# as §2, with “animals. […]” for “animals.”
molecule,measurement,setting,value
O=C1[O][Pt]2([NH][C@@H]3CCCC[C@H]3[NH]2)[O]C1=O [Oxaliplatin],anti-tumor activity,[1],increased antitumor activity
Nc1ccn([C@@H]2O[C@H](CO)[C@@H](O)C2(F)F)c(=O)n1 [gemcitabine],anti-tumor activity,[2],significant anti-tumor activity
same,anti-tumor activity,[1],significant anti-tumor activity
"COc1cccc2c1C(=O)c1c(O)c3c(c(O)c1C2=O)C[C@@](O)(C(=O)CO)C[C@@H]3O[C@H]1C[C@H](N)[C@H](O)[C@H](C)O1 [Doxorubicin, doxorubicin]",anti-tumor activity,[2],did not elicit anti-tumor activity
same,anti-tumor activity,[1],did not elicit anti-tumor activity
same,No. of CRs,[3]; 1 mg/kg,0/10
same,No. of CRs,[3]; 4 mg/kg,2/10
same,number of complete responders,[3]; doxorubicin 4 mg/kg alone or combined with antibody,2 animals
B1,tumor growth,[4],inhibits tumor growth
B2,anti-tumor activity,[5]; tumors 100-150 mm^3,minimally active
same,complete response,"[5]; tumors 100-150 mm^3, out of 12 mice",one
same,anti-tumor activity,[6]; tumors 200-300 mm^3,low to moderate activity
same,complete responders,"[6]; tumors 200-300 mm^3, out of 12 mice",a few
